Experimental data from PMC12703502, “Characterization of Novel Angiotensin-Converting Enzyme Inhibitory Peptides” (ACS Medicinal Chemistry Letters, 2025).
Like-named read-outs stand apart in the source and are kept apart here. Where no end group is shown, it is not given here.

Columns and labels:
ACE = details: peony seed peptides, VLSGF vs HWS; cited from earlier work
[1] = tested on: ACE C-domain and N-domain; set-up: method as in 2 sources, one per row (each row's own in cited_ref): ref 22 (probable, citation mark not shown) ||| ref 20 (probable, citation mark not shown); details: C-domain vs N-domain; ref 22 (probable, citation mark not shown); cited from earlier work
Text: Both drugs are tripeptides-analogues and present a proline-like C-terminal extremity to interact with the S2′ pocket of ACE, which is composed of Gln281, Tyr520, Lys511, His513, and His353. […] Captopril presents a smaller structure with a sulfhydryl group at the N-terminal to interact with the zinc ion.

[2] = target: Angiotensin-converting enzyme (ACE) (Homo sapiens, UniProt P12821); experiment: ACE inhibition, Cushman & Cheung method with slight modifications (HHL substrate); format: biochemical
Text: Characterization of Novel Angiotensin-Converting Enzyme Inhibitory Peptides Camila Innocente-Alves1,2, Sara Luísa Sulzbach1, Emerson Gonçalves Moreira3, Raul Izidoro Carneiro3, Lucélia Santi1,2,3, Hugo Verli2,3, Walter Orlando Beys-da-Silva1,2,3* 1 Faculdade de Farmácia, Universidade Federal do Rio Grande do Sul, Porto Alegre, Brasil 2 Programa de Pós-Graduação em Biologia Celular e Molecular, Universidade Federal do Rio Grande do Sul, Porto Alegre, Brasil
3 Centro de Biotecnologia (CBiot), Universidade Federal do Rio Grande do Sul, Porto Alegre,
* corresponding author: walter.beys@ufrgs.br
Selection of the bioactive peptides
The peptides were selected from a previous virtual screening performed against our chemical library (PepDB), and evaluated in vitro for its antihypertensive potential. The structures of the peptides, […] […]
PyRosetta. […] The molecular docking result was evaluated usin g the Protein-Ligand Interaction Profile (PLIP) tool ( https://plip-tool.biotec.tu-dresden.de/) for characterization of the interactions and PyMOL ( https://www.pymol.org/) visualization. […]
The peptides were synthesized by AminoTech ( São Paulo, Brazil). […] The ability of the peptides to inhibit ACE activity was evaluated by the Cushman & Cheung method with slight modifications. Absorbances were read at 228 nm (Spectramax M2, Molecular Devices) and ACE inhibition was expressed as percentage of inhibition. […]

Angiotensin-converting enzyme (ACE), sequence (P12821 30-1306, species assumed): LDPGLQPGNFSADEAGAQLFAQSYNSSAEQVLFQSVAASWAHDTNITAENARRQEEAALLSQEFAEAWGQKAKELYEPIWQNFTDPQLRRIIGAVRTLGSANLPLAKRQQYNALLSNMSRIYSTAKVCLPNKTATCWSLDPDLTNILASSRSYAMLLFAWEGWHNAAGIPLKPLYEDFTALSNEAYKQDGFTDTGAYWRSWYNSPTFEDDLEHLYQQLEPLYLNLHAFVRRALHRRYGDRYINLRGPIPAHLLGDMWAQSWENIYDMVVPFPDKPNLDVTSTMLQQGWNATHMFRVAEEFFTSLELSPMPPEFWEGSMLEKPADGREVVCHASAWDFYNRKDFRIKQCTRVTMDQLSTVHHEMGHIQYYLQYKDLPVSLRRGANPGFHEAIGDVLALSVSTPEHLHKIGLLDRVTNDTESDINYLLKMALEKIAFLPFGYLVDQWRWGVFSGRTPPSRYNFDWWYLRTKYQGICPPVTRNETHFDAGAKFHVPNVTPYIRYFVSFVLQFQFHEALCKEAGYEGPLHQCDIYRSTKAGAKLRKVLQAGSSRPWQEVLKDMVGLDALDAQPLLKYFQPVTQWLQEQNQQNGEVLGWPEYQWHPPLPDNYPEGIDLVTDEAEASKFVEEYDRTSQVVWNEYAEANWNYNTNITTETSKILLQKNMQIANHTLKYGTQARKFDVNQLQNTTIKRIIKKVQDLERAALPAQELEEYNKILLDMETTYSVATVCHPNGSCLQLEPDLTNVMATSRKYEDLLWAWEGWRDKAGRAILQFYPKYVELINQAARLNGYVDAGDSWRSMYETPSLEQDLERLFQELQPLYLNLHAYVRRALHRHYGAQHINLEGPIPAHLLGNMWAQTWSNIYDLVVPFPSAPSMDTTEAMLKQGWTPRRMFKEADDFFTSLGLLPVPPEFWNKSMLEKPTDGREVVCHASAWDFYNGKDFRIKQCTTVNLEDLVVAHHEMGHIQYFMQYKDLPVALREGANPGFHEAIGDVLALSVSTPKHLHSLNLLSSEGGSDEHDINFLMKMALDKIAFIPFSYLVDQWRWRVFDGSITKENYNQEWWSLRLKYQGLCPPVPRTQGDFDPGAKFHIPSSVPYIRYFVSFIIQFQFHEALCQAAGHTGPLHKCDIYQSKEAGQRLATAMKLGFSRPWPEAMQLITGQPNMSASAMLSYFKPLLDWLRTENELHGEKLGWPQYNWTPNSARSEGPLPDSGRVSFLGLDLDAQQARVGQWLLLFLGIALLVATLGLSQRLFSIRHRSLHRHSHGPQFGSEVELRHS

Compound: VLSGF
- relative IC50 (ACE): lower IC50

Compound: NCCCC[C@H](N[C@@H](CCc1ccccc1)C(=O)O)C(=O)N1CCC[C@H]1C(=O)O [Lisinopril]
- affinity to ACE domains [1]: higher affinity to the C-domain

Compound: VWTNCYHLYPAH [PepDB_AHP4]
- IC50 [2]: 88.6 µM

Compound: MSFLEHFLELK [PepDB_AHP1]
- IC50 ([2]; Cushman & Cheung method, HHL substrate, absorbance 228 nm, at least triplicates, nonlinear regression GraphPad Prism 8.0.1, read-out: IC50): 331 µM
